Bridge positions count the residues as written; N and C are the ends. Ends that are not written are not given here. * marks the point of attachment. Acm = CC(=O)NC*
Key:
[1] = system: dissociate and cultured cortical neurons; assay: Mobilization of intracellular Ca2+ in dissociate cultured cortical neurons (Fura-2 AM fluorescence); type: cell-based, rat (newborn Sprague-Dawley)
Source text: Neurons can be isolated from cerebral cortex according to the protocols for postnatal dissociated nuerons as disclosed for example by Huettner, J. E. and Baughman, R. W., Primary Culture of Identified Neurons From the Visual Cortex of Postnatal Rats, Journal of Neurosciences 6; 3044-3060 (1986); Brewer, G. J., Isolation and Culture of Adult Rat Hippocampal Neurons, Journal of Neuroscience Methods, 71:143-155 (1997); and Brailoiu et al., NAADP Potentiates Neurite Outgrowth, Journal of Biological Chemistry (in press), each hereby incorporated by reference. Newborn Sprague-Dawley rates (about 1 day to about 4 days old) were killed by cervical dislocation. Cerebral cortex was removed and quickly immersed in ice-cold phosphate buffer solution. After removal of meninges, tissue was minced into about I-millimeter blocks, incubated for about 45 minutes at 37° C. in Hanks balanced salt solution without Ca^2+ and Mg^2+ (Invitrogen, 1600 Faraday Avenue, Carlsbad, Calif. 92008) and supplemented with about 200 ug/mL penicillin, 0.1% EDTA and papain 0.15 mg/mL (Sigma-Aldrich, St. Louis, Mo.). In accordance with the procedure disclosed by Brewer, the tissue can be further dissociated by gentle mechanical trituration. After centrifugation at 500×g, cells can be re-suspended in fetal serum free media containing Neurobasal-ATM medium supplemented with […], 100 unites penicillin, 100 ug streptomycin, and B27 supplement all of which can be obtained for example from Invitrogen. The resulting cells can be plated at a low density of about 10^4 on round glass coverslips in twenty four well plates. Neurons were cultured at 37° C. in […] and 5% carbon dioxide for about 3 days to about 5 days. The mitotic inhibitor, cytosine P-arabino furanosidde (about 1 μM) which can be obtained from Sigma-Aldrich can be added to cultured neurons to inhibit glial cell proliferation according to the procedure disclosed by Billingsley, M. L. and Mandel, H. G., Effects of DNA Synthesis Inhibitors on Post-Traumatic Glial Cell Proliferation, Journal of Pharmacology and Experimental Therapeutics, 222: 765-770 (1982).
Measurement of mobilized intracellular calcium ion (Ca^2+) in dissociate cultured neurons in response to peptide fragments of HIV-1 Tat polypeptides can be performed as disclosed by Brailoiu E. et al. Neurons cultured about 24 hours on coverslips as above-described were loaded in HBBS with 5μ Fura-2 AM dye at room temperature (about 20° C.) for about 45 minutes in the dark, then washed three times with Fura-2 AM free buffer and allowed to incubate to allow de-esterification of the dye for about 45 minutes. Under these conditions, compartmentalization of the dye was minimal (about 9.2%±0.2% n=6) as judged from the ratio of fluorescence signals after selective permeabilization of the plasma membrane (10 μM β-escein) and full permeabilization of the cultured cells (60 μg/mL saponin). The coverslips were mounted in a custom designed bath on the stage of a S300 Axiovert […] inverted microscope equipped with a C&L Instruments fluorimeter as described by Brailoiu et al. The Fura-2 fluorescent signal was calibrated by successive addition of 20 μg/mL digitonin, 20 mM EDTA, and 0.5 mM MnCl2.
Table 1. Effect of HIV1-Tat Polypeptides on [Ca^2+] Response in Dissociate and Cultured Cortical Neurons

humans = settings: infusion of normal postprandial concentrations, over 24 h; cited from earlier work
[2] = system: rat medulla oblongata (NTS, RVLM); settings: cited from earlier work

Row | Substance | [Ca^2+] response ([1]; n = 5-10) | also measured
1 | HIV1 48-84 (GRKKRRQRRRAHQNSQTHQASLSKQPTSQPRGDPTGP; Human immunodeficiency virus type 1) [peptide fragment of the HIV1 30-86 peptide] | 80 ± 28 nM | 
2 | HIV1 41-60 (KALGISYGRKKRRQRRRAHQ; Human immunodeficiency virus type 1) [peptide fragment of the HIV1 30-86 peptide] | 66 ± 13 nM | 
3 | HIV1 30-57 (Cys30-Cys34)(Cys 31-Cys37) (CCFHCQVCFITKALGISYGRKKRRQRRR; disulfide 1-5, 2-8) [HIV1 30-57 (Cys30-Cys34)(Cys31-Cys37)] | 528 ± 60 nM | 
4 | Peptide YY(3-36) [PYY(3-36)] |  | reduction of food intake (humans): 33%
5 | HIV1 61-80 (NSQTHQASLSKQPTSQPRGD; Human immunodeficiency virus type 1) [peptide fragment of the C-terminal region of the HIV1 30-86 peptide] | 56 ± 20 nM | 
6 | HIV1 30-86 (Cys30-Cys34)(Cys31-Cys37) (CCFHCQVCFITKALGISYGRKKRRQRRRAHQNSQTHQASLSKQPTSQPRGDPTGPKE; disulfide 1-5, 2-8) | 390 ± 21 nM | 
7 | Apelin: endogenous ligands at the orphan G-protein coupled receptor, APJ (QRPRLSHKGPMPF; Apelin-13; UniProt Q9ULZ1 65-77, looked up) |  | increase in arterial pressure ([2]; microinjection into either of the NTS and the RVLM): 10-20 mm Hg; decreased phrenic nerve discharge amplitude ([2]; microinjection into the NTS): up to 30%
8 | HIV1 62-86 (SQTHQASLSKQPTSQPRGDPTGPKE; Human immunodeficiency virus type 1) [peptide fragment of the C-terminal region of the HIV1 30-86 peptide] | No Response | 
9 | HIV1 30-47 (Cys30-Cys34)(Cys31-Cys37) (CCFHCQVCFITKALGISY; disulfide 1-5, 2-8) [HIV1 30-47 (Cys 30-Cys34)(Cys 31-Cys37), HIV1 Tat fragment which lacks the second transport peptide region] |  | [Ca^2+] response ([1]; n = 5-10 in a column of its own, listed as 30-47 (Cys 30-Cys34)(Cys 31-Cys37)): No Response; [Ca^2+] response ([1]; n = 5-10 in a column of its own, listed as HIV1 30-47 (Cys30-Cys34)(Cys31-Cys37)): cannot mobilize intracellular calcium ion
10 | HIV1 30-57 (Cys31-Cys37)(Cys 31-ACM)(Cys34-ACM) (C(Acm)CFHC(Acm)QVCFITKALGISYGRKKRRQRRR; disulfide 2-8) [HIV1 30-48 (Cys 30 ACM)(Cys 31-Cys 37 disulfide)(Cys 34 ACM) with transport region HIV1 49-57] | 197 ± 35 nM | 
11 | HIV1 32-62 (Cys34-Cys37): HIV1 Tat polypeptide fragment 32-62 with Cys34-Cys37 disulfide (FHCQVCFITKALGISYGRKKRRQRRRAHQNS; disulfide 3-6) | 752 ± 59 nM | 
12 | HIV1 58-86 (AHQNSQTHQASLSKQPTSQPRGDPTGPKE; Human immunodeficiency virus type 1) [peptide fragment of the C-terminal region of the HIV1 30-86 peptide] | 54 ± 28 nM | 
13 | HIV1 30-57 (Cys30-Cys37)(Cys 31-Cys34) (CCFHCQVCFITKALGISYGRKKRRQRRR; disulfide 1-8, 2-5) [HIV1 30-57 (Cys30-Cys37)(Cys31-Cys34), 14] | 197 ± 46 nM | 
14 | RKKRRQRRR (Human immunodeficiency virus type 1) [HIV1 49-57, Tat transduction domain, transport peptide region alone] | No Response | 
15 | HIV1 30-57 (Cys30-Cys31)(Cys 34-Cys37) (CCFHCQVCFITKALGISYGRKKRRQRRR; disulfide 1-2, 5-8) [HIV1 30-57 (Cys30-Cys31)(Cys34-Cys37)] | 258 ± 54 nM | 
